Results reported in US20020132812A1, “Oral hypoglycaemic agents” (priority 2000, published 2002).
Structures can show the parent of a compound that is named as a salt.

**Q.** Which melting point does the source give for O=Cc1cccc(C(CC2=NCCN2)c2ccccn2)c1 (stereo not shown) (as salt: fumarate) [Example 34, 3-[2-(4,5-Dihydro-1H-imidazol-2-yl)-1-pyridin-2-yl-ethyl]-benzaldehyde] here?
**A.** The melting point was 138 to 139 °C.

**Q.** Which melting point does the source give for Nc1cccc(C(CC2=NCCN2)c2ccccn2)c1 (stereo not shown) (as salt: fumarate) [Example 39, 3-[2-(4,5-Dihydro-1H-imidazol-2-yl)-1-pyridin-2-yl-ethyl]-phenylamine] here?
**A.** The melting point was 154 to 155 °C.

**Q.** With c1ccc(C(CC2=NCCN2)c2cccc(C3OCCO3)c2)nc1 (stereo not shown) (as salt: fumarate) [Example 33, 2-[2-(4,5-Dihydro-1H-imidazol-2-yl)-1-(3-[1,3]dioxolan-2-yl-phenyl)ethyl]pyridine] as the molecule, how does the melting point read?
**A.** The melting point was 162 to 162.5 °C.

**Q.** For C(/C1=NCCN1)=C(/c1cccc(C2OCCO2)c1)c1ccccn1 (as salt: fumarate) [Example 32, 2-[2-(4,5-Dihydro-1H-imidazol-2-yl)-1-(3-[1,3]dioxolan-2-yl-phenyl)-vinyl]-pyridine], which melting point is on record?
**A.** Its melting point is 98 to 98.5 °C.

**Q.** Which melting point does the source give for FC(F)(F)c1cccc(C(CC2=NCCN2)c2ccc3ccccc3n2)c1 (stereo not shown) [Example 38, ethyl compound, 2-[2-(4,5-Dihydro-1H-imidazol-2-yl)-1-(3-trifluoromethyl-phenyl)-ethyl]-quinoline] here?
**A.** Its melting point is 92 to 93 °C.

**Q.** For OCc1cccc(C(CC2=NCCN2)c2ccccn2)c1 (stereo not shown) (as salt: fumarate) [Example 35, 3-[2-(4,5-Dihydro-1H-imidazol-2-yl)-1-pyridin-2-yl-ethyl]-phenyl-methanol], which melting point is on record?
**A.** The melting point was 114 to 115 °C.

**Q.** For FC(F)(F)c1cccc(/C(=C/C2=NCCN2)c2ccc3ccccc3n2)c1 [Example 38, vinyl compound, 2-[2-(4,5-Dihydro-1H-imidazol-2-yl)-1-(3-trifluoromethyl-phenyl)-vinyl]-quinoline], which melting point is on record?
**A.** The melting point was 76.5 °C.

**Q.** With Oc1cc2c(c(C(CC3=NCCN3)c3ccccn3)c1)OCC2 (stereo not shown) (as salt: hydroiodid) [Example 30, 7-[2-(4,5-Dihydro-1H-imidazol-2-yl)-1-pyridin-2-yl-ethyl]-2,3-dihydro-benzofuran-5-ol] as the molecule, how does the melting point read?
**A.** The melting point was 186 to 187 °C.

**Q.** For c1ccc(C(CC2=NCCN2)c2cccc3c2OCC3)nc1 (stereo not shown) (as salt: fumarate) [Example 40, 1-(2,3-Dihydro-7-benzofuranyl)-2-(4,5-dihydro-2-imidazolyl)-1-(2-pyridyl)-ethane], which melting point is on record?
**A.** Its melting point is 166 to 167 °C.

**Q.** With Nc1cc2c(c(C(CC3=NCCN3)c3ccccn3)c1)OCC2 (stereo not shown) [Example 41, 7-[2-(4,5-Dihydro-1H-imidazol-2-yl)-1-pyridin-2-yl-ethyl]-2,3-dihydro-benzofuran-5-ylamine] as the molecule, how does the melting point read?
**A.** Its melting point is 143 to 144 °C.
